{
  "source": "patent USRE49035E1",
  "about": "“Traditional Chinese medicine composition, and preparation and application thereof” (Tasly Pharmaceutical Group Co., Ltd., priority 2013, dated 2022)",
  "format_in_all_cases": "in vivo",
  "key": {"[1]": {"test_system": "ADP-induced platelet aggregation", "assay": "ADP-induced platelet aggregation rate trial in rabbits", "conditions": "ADP final 3 μg/ml; dose 60 mg/kg intragastrically once a day for 7 d", "procedure": "(§1) The rabbits were randomly grouped into 4 groups: the model group was given with distilled water, the aspirin group ([…]), Extract A groups of low dose and high dose at 42 and 84 mg/kg (respectively 1 2 times of clinic equivalent dosage), intragastrically administrated, once a day for 7 consecutive days. The volume of medicine administrated was 1 ml/kg body weight. 60 min after intragastric administration on 7th day, the animals were anesthetized locally, blooded through carotid artery, anticoagulated with sodium citrate (3.8%) 1:9 and centrifugated at 1000 r/min for 10 min. Platelet-rich plasma (PRP) was taken and the remain centrifugated at 3000 r/min to take platelet-poor plasma (PPP. Aggregation was induced by ADP (final concentration 3 μg/ml), AA (final concentration 80 μg/ml) and collagen (5 μg/ml). […] platelet aggregation & coagulation factor analyzer was used to measure the maximum platelet aggregation rate and to calculate inhibition rate according to following formula. [formula]"}, "[2]": {"test_system": "AA-induced platelet aggregation", "assay": "AA-induced platelet aggregation rate trial in rabbits", "conditions": "AA final 80 μg/ml; dose 60 mg/kg intragastrically once a day for 7 d", "procedure": "as §1"}, "[3]": {"test_system": "collagen-induced platelet aggregation", "assay": "Collagen-induced platelet aggregation rate trial in rabbits", "conditions": "collagen 5 μg/ml; dose 60 mg/kg intragastrically once a day for 7 d", "procedure": "as §1"}},
  "data": [
    {"smiles": "CC(=O)Oc1ccccc1C(=O)O", "note": "[Aspirin]", "values": [
      {"measurement": "Platelet aggregation rate", "setting": "[1]", "value": "19.15 ± 4.08", "unit": "%"},
      {"measurement": "Platelet aggregation rate", "setting": "[2]", "value": "5.80 ± 1.85", "unit": "%"},
      {"measurement": "Platelet aggregation rate", "setting": "[3]", "value": "6.06 ± 2.07", "unit": "%"}
    ]}
  ]
}
